Assay results reported in patent US9908890B2, “Selective inhibitors of constitutive androstane receptor” (ST. JUDE CHILDREN'S RESEARCH HOSPITAL, priority 2014, dated 2018).

Assays:
[1] = test system: CAR binding to CYP2B6 and CYP3A4 promoter response elements; assay: Chromatin immunoprecipitation (CAR / RNA polymerase II occupancy at promoters); format: cell-based, human
Experimental: FIG. 8B and FIG. 8C show the fold enrichment of CAR at CYP2B6-dNR3 and CYP2B6-PBREM sites, respectively, in the promoter region following the indicated treatment in human primary hepatocytes. […] Protein complexes were cross-linked and chromatin was immunoprecipitated by using anti-CAR antibody or control IgG. CAR occupancy at two separate CYP2B6 promoter regions (dNR3 and PBREM) was determined by performing quantitative RT-PCR assays. Fold-enrichment normalized to IgG control was plotted. Data represent the mean±SD of 3 experiments. *, p<0.01 comparing CITCO treatment to DMSO treatment.
FIG. 9A, FIG. 9B, and FIG. 9C show the fold enrichment of CAR at CYP2B6-dNR3, CYP3A4-XREM, and CYP2B6-dNR3 sites, respectively, in the promoter region following the indicated treatment in human primary hepatocytes or HepG2-hCAR1 cells, as indicated in the figures. Briefly, in FIG. 9A and FIG. […] 9C HepG2-hCAR1 stable cells were treated for […] with DMSO, 1 μM CITCO, 5 μM CINPA1, or 1 μM CITCO+5 μM CINPA1. Protein complexes were cross-linked and chromatin was immunoprecipitated by using anti-CAR antibody, anti-RNA polymerase II (RPol) antibody, or control IgG. CAR or RPol occupancy at the CYP2B6-dNR3 region and CYP3A4-XREM region was determined by performing quantitative RT-PCR assays. Fold-enrichment was normalized to IgG control. Data represent the mean±SD of 3 experiments. *, p<0.001 and #, p<0.01 comparing CITCO to DMSO samples. **, p<0.001 and ##, p<0.01 comparing CITCO+CINPA1 to CITCO samples.
ChIP was performed as described previously (Cherian, M. T., et al. (2012) J. Biol. Chem. 287, 23368-23380). Briefly, human hepatocytes in 6-well plates were maintained for 3-4 days in Williams E medium containing Primary Hepatocyte Maintenance Supplement (Life Technologies), with daily media changes. Nine wells were used for each treatment group. […] The HepG2-hCAR1 stable cells in FIG. 9 were treated with DMSO, 1 μM CITCO, 5 μM CINPA1, or 1 μM CITCO+5 μM CINPA1 for […]. In FIG. 9, the hepatocytes from donor 7 were treated with DMSO, 0.1 μM CITCO, 1 μM CINPA1, or 0.1 μM CITCO+1 μM CINPA1 for 45 min. Proteins were cross-linked with 1% formaldehyde for 10 min. Cell extracts were digested for 10 min with 50 units of micrococcal nuclease (New England Biolabs) at 37° C. and further sonicated to yield sheared DNA fragments having an average length of 200-1000 base pairs. The sonicated samples were pelleted by centrifugation, and the supernatant was diluted 3- to 5-fold with ChIP dilution buffer (0.01% SDS, 1.1% Triton X-100, 1.2 mM EDTA, 16.7 mM Tris-HCl, pH 8.1, 167 mM NaCl, and protease inhibitor cocktail). […] Quantitative RT-PCR assays were performed to determine the change in CAR occupancy at various sites of CAR binding. […]

hCAR1 = target: T1, hCAR1 (Homo sapiens, UniProt Q14994); assay: CAR-mediated CYP3A4-luciferase assay (HepG2 cells transfected with hCAR1); format: cell-based; conditions: 1 μM or 5 μM CINPA1, 24 h
T1 construct: expressed in transfected cells; host or cells: HepG2 (transient transfection)
T1 sequence (Q14994 1-348 isoform Q14994-2): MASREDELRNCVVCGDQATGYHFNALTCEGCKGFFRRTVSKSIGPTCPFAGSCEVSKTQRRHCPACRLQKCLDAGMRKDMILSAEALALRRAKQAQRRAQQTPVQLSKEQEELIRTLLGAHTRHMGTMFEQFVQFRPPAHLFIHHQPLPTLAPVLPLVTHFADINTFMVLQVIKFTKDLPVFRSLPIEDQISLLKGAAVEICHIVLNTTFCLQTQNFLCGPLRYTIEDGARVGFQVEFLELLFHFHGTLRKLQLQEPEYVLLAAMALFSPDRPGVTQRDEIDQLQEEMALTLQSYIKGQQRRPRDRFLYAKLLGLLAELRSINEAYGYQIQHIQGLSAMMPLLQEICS
Experimental: Briefly, HepG2 cells were transiently transfected with plasmids expressing hCAR1, CYP3A4-luc reporter and control plasmid pTK-RL. […] Dual luciferase activity was measured 24 h after treatment using Dual-Glo® luciferase reagent. Renilla luciferase was used to normalize firefly luciferase values and % Luciferase activity was calculated by setting DMSO to 100%. p<0.001, when comparing DMSO to all treatments except 5 μM rifampicin. […] Briefly, HepG2-PXR Clone 1 cells were treated with CINPA1 in a dose-responsive format (40 μM to 2 nM, 1-to-2 dilutions for 10 concentrations) in the presence or absence of 5 μM rifampicin (Rif) for 24 h before luciferase assay using SteadyLite™. % PXR activity was calculated by setting DMSO (negative. control) treated cells to 0% and 5 μM rifampicin (positive. control) treated cells to 100%. GraphPad Prism was used to fit the data into a dose-response stimulation equation to derive IC50 values. […] Briefly, U2OS cells were transiently transfected with plasmids expressing hCAR1, CYP2B6-luc reporter and control plasmid pTK-RL. […] Dual luciferase activity was measured 24 h after treatment. Renilla luciferase was used to normalize firefly luciferase values and % Luciferase activity was calculated by setting DMSO to 100%. *, p<0.0001 comparing CITCO+CINPA1 to CITCO treated cells.

[2] = human hepatocytes, 0.1 μM CITCO + 1 μM CINPA1, 45 min

## CCOC(=O)Nc1ccc2c(c1)N(C(=O)CN(CC)CC)c1ccccc1CC2 [CINPA1]
[1]; [2]
  CITCO-mediated recruitment of CAR and RNA polymerase II to XREM (dNR3) of the CYP2B6 promoter: effectively reduced
  CITCO-mediated recruitment of CAR and RNA polymerase II to XREM of the CYP3A4 promoter: also reduced
[1]; human primary hepatocytes, 3 donors, overnight, 1 μM CITCO or 5 μM CINPA1
  CAR recruitment to XREM (dNR3) of the CYP2B6 gene: prevents CAR recruitment
hCAR1
  CAR-mediated CYP3A4-luciferase activity: also seen in CAR-mediated CYP3A4-luciferase activity
